Key:
CDK2/Cyclin A = target: T1, CDK2/Cyclin A (Homo sapiens, UniProt P24941); assay: Enzymatic assay for CDK2 (LANCE Ultra kinase assay, FRET based); format: biochemical; details: ATP at Km
T1 construct: purchased Invitrogen PV6290
Procedure, shortened: (§1)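 TR-FRET kinase assay at ATP Km with ULight-MBP peptide (68 nM) and Eu-anti-phospho-MBP antibody; CDK2/Cyclin A at […], CDK5/p25 at […]. 8-dose 4-fold compound dilutions; 60 min kinase reaction at 23° C., EDTA stop, 60 min detection, read at 615/665 nm.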

CDK5/p25 = target: T2, CDK5/p25 (Homo sapiens, UniProt Q00535); assay: Enzymatic assay for CDK5 (LANCE Ultra kinase assay, FRET based); format: biochemical; details: ATP at Km
T2 construct: purchased Invitrogen PR8543B
Procedure, shortened: as §1

CDK7/Cyclin H/MNAT1 = target: T3, CDK7/Cyclin H/MNAT1 (Homo sapiens, UniProt P50613); assay: Enzymatic assay for CDK7 (LANCE Ultra kinase assay, FRET based); format: biochemical; details: for IC50: ATP at Km
T3 construct: purchased Invitrogen PR6749B
Procedure, shortened: (§2)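 Kinase activity of each purified CDK/cyclin complex was followed in a FRET format where a Europium anti-phospho-antibody recognises phosphorylated ULight-labeled peptide. ATP was held at its Km.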

OVCAR-3 = OVCAR-3 viability assay (CellTiter-Glo, 72 hours); format: cell-based; details: Homo sapiens; OVCAR-3 cells
Procedure, shortened: (§3)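 Each line was plated at its own density (1×10^4, 5×10^3 and 1×10^3 cells/well for MV4-11, OVCAR-3 and A2780 respectively) in RPMI-1640 with 10% FBS. Treatment with compound, 0.0015 uM to 10 uM and DMSO under 0.1%, lasted 72 h. Surviving cells were quantified by CellTiter-Glo.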

CDK1/Cyclin B = target: T4, CDK1/Cyclin B (Homo sapiens, UniProt P06493); assay: Enzymatic assay for CDK1 (LANCE Ultra kinase assay, FRET based); format: biochemical; details: ATP at Km; read-out: CDK1 enzymatic activity IC50
T4 construct: purchased Invitrogen PR4768C
Procedure, shortened: as §2

A2780 = A2780 viability assay (CellTiter-Glo, 72 hours); format: cell-based; details: Homo sapiens; A2780 cells
Procedure, shortened: as §3

MV4-11 = assay: Cellular MV4-11 viability assay (CellTiter-Glo, 72 hours); format: cell-based; details: Homo sapiens; MV4-11 cells
Description: Human […] cell line, MV4-11_(ATCC, Cat #CRL-9591), NSCLC (Non-small cell lung cancer) cell line H460 (ATCC, Cat #HTB-177), A2780 (ECACC, Cat #93112519) and OVCAR-3(ATCC, Cat #HTB-161) were obtained from ATCC. Cells were grown in RPMI-1640 media (Invitrogen, Cat #22400-089) supplemented with 10% FBS (Invitrogen, Cat #10099141) and 1% penicillin/streptomycin (Invitrogen, Cat #15070063) and cultured at 37° C., 5% CO2 in a humidified chamber. All cell lines were routinely tested for mycoplasma.
To effect of the CDK7 inhibitor to inhibit the growth of target cancer cells, viability assay were conducted a 72 hour time period. Briefly, the candidate cell line was plated in 96 well plate at the following density of cells respectively. 1×10^4 cells/well for MV4-11, 5×10^3 for H460 and OVCAR-3, and 1×10^3 for A2780. After 24 hours, the cells were treated with various concentrations of the compound (ranging from 0.0015 uM to 10 uM). DMSO solvent without compound served as a control and final DMSO concentration lest than 0.1%. After 72 hours of incubation at 37° C., 5% CO2 incubator, cells were analyzed for the viability using the CellTiter-Glo Luminescent Cell Viability Assay (Promega, Cat #G7570). All viability assays were performed in duplicate and Luminescence was read using an Envision (Perkin Elmer, USA). Data was analyzed using XLfit software.

T3 sequence (P50613 whole entry): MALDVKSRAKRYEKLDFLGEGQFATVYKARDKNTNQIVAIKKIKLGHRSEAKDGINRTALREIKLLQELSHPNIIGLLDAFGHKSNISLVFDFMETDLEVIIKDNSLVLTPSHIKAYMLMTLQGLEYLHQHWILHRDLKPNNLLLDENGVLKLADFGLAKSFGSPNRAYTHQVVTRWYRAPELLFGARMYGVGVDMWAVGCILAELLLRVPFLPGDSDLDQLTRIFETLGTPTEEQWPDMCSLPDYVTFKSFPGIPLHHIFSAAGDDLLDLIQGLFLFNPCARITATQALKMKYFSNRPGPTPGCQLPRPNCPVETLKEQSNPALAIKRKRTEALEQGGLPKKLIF
T3 sequence (P51946 whole entry partner): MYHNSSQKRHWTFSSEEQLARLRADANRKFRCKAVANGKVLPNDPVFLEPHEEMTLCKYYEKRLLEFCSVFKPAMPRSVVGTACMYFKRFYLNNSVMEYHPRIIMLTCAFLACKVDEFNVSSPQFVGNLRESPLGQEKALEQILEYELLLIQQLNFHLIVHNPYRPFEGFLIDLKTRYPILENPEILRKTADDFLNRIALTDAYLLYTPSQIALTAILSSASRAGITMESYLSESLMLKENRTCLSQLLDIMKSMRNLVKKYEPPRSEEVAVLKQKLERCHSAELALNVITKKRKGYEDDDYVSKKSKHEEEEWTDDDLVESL
T3 sequence (P51948 whole entry partner): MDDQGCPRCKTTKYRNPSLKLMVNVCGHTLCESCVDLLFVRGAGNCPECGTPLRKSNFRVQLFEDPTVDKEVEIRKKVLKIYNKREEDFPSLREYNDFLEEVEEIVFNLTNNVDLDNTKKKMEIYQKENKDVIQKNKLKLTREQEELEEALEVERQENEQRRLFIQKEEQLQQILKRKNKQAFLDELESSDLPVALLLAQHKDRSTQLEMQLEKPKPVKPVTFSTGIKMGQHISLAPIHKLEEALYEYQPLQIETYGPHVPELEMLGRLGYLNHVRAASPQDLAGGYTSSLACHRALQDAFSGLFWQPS
T2 sequence (Q00535 whole entry): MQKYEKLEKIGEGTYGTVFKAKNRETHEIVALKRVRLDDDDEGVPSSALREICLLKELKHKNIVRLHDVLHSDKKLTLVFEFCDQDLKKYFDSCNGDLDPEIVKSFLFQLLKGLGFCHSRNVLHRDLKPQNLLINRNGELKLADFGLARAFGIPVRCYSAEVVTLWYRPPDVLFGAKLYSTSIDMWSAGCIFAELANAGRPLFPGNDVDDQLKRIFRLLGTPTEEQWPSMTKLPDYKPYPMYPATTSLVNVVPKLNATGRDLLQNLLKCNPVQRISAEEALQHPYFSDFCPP
T2 sequence (Q15078 99-307 partner limits assumed): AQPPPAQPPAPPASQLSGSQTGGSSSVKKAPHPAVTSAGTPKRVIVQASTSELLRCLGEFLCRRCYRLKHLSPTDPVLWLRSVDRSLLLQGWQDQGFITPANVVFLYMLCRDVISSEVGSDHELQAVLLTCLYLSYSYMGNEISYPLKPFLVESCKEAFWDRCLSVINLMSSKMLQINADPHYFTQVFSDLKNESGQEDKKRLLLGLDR
T4 sequence (P06493 whole entry): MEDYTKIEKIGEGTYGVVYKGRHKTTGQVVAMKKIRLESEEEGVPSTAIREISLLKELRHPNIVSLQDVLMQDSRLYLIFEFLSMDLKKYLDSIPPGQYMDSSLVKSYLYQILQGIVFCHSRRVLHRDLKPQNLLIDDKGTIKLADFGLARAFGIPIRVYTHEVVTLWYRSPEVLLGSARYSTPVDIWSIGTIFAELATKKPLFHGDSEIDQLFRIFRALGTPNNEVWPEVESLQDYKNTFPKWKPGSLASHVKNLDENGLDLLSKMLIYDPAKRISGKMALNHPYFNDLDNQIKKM
T4 sequence (P14635 whole entry partner): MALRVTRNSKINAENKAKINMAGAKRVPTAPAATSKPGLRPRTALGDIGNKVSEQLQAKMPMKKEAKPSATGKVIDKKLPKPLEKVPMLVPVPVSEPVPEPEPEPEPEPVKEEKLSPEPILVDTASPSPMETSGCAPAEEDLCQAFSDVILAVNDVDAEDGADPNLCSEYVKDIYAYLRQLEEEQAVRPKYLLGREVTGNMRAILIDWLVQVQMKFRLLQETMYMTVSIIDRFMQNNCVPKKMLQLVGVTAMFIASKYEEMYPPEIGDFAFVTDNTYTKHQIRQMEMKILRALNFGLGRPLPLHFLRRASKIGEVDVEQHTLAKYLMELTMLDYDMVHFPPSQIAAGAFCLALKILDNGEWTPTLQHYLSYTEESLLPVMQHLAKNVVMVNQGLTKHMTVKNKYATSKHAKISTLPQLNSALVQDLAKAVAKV

SMILES | IC50 (CDK2/Cyclin A) [nM] | IC50 (CDK5/p25) [nM] | IC50 (CDK7/Cyclin H/MNAT1) [nM] | CDK1/CDK7: Selectivity of CDK7 inhibition over CDK1 inhibition (CDK7/Cyclin H/MNAT1) | CDK2/CDK7: Selectivity of CDK7 inhibition over CDK2 inhibition (CDK7/Cyclin H/MNAT1) | CDK5/CDK7: Selectivity of CDK7 inhibition over CDK5 inhibition (CDK7/Cyclin H/MNAT1) | IC50 (OVCAR-3) [nM] | IC50 (CDK1/Cyclin B) [nM] | IC50 (A2780) [nM] | IC50 (MV4-11) [nM]
CC(C)c1cnn2c(NCc3ccccc3-c3nccc4cc(NC(=O)/C=C/CN(C)C)ccc34)nc(NCCCO)nc12 [Compound 28] | > 1000 | > 1000 | 100 to 1000 | B (B indicates 50 < [fold] ≤ 500) | B (B indicates 50 < [fold] ≤ 500) | B (B indicates 50 < [fold] ≤ 500) | < 1000 | > 1000 | < 1000 | < 1000
CC(C)c1cnn2c(NCc3ccccc3-c3nccc4cc(NC(=O)/C=C/CN(C)C)ccc34)nc(NCC3CCOCC3)nc12 [Compound 43] | > 1000 | > 1000 | 100 to 1000 | B (B indicates 50 < [fold] ≤ 500) | B (B indicates 50 < [fold] ≤ 500) | B (B indicates 50 < [fold] ≤ 500) | < 1000 | > 1000 | < 1000 | < 1000
CC(C)c1cnn2c(NCc3ccccc3-c3ccnc4cc(NC(=O)/C=C/CN(C)C)ccc34)nc(N3CCC(N)CC3)nc12 [Compound 55] | > 1000 | > 1000 | < 100 | A (A indicates [fold] > 500) | A (A indicates [fold] > 500) | B (B indicates 50 < [fold] ≤ 500) | < 1000 | > 1000 | < 1000 | < 1000
C/C=C/C(=O)Nc1ccc2c(ccn2-c2ccccc2CNc2nc(NC[C@H]3CCNC[C@@H]3O)nc3c(C(C)C)cnn23)c1 [Compound 74] | > 1000 | 100 to 1000 | < 100 | B (B indicates 50 < [fold] ≤ 500) | B (B indicates 50 < [fold] ≤ 500) | B (B indicates 50 < [fold] ≤ 500) | < 1000 | > 1000 | < 1000 | < 1000
C=C(F)C(=O)Nc1cccc2cc(-c3cccc(C)c3CNc3nc(NC[C@H]4CCNC[C@@H]4O)nc4c(C(C)C)cnn34)[nH]c12 [Compound 78] | > 1000 | > 1000 | < 100 | A (A indicates [fold] > 500) | A (A indicates [fold] > 500) | B (B indicates 50 < [fold] ≤ 500) | 1000 to 10000 | > 1000 | < 1000 | < 1000
CC(C)c1cnn2c(NCc3ccccc3-c3nccc4cc(NC(=O)/C=C/CN(C)C)ccc34)nc(NC[C@H]3CC[C@H](O)CC3)nc12 [Compound 33] | > 1000 | > 1000 | 100 to 1000 | B (B indicates 50 < [fold] ≤ 500) | B (B indicates 50 < [fold] ≤ 500) | B (B indicates 50 < [fold] ≤ 500) | < 1000 | > 1000 | < 1000 | < 1000
CC(C)c1cnn2c(NCc3ccccc3-c3nccc4cc(NC(=O)/C=C/CN5CCCCC5)ccc34)nc(NC[C@H]3CCNC[C@@H]3O)nc12 [Compound 76] | > 1000 | > 1000 | < 100 | A (A indicates [fold] > 500) | A (A indicates [fold] > 500) | A (A indicates [fold] > 500) | < 1000 | > 1000 | < 1000 | < 1000
CC(C)c1cnn2c(NCc3ccccc3-c3nccc4cc(NC(=O)/C=C/CN5CCOCC5)ccc34)nc(N3CCC(N)CC3)nc12 [Compound 53] | > 1000 | > 1000 | < 100 | A (A indicates [fold] > 500) | A (A indicates [fold] > 500) | A (A indicates [fold] > 500) | < 1000 | > 1000 | < 1000 | < 1000
CC(C)c1cnn2c(NCc3ccccc3-c3nccc4cc(NC(=O)/C=C/CN(C)C)ccc34)nc(N3CCC(N(C)C)CC3)nc12 [Compound 39] | > 1000 | > 1000 | < 100 | A (A indicates [fold] > 500) | A (A indicates [fold] > 500) | B (B indicates 50 < [fold] ≤ 500) | < 1000 | > 1000 | < 1000 | < 1000
CC(C)c1cnn2c(NCc3ccccc3-c3nccc4cc(NC(=O)/C=C/CN(C)C)ccc34)nc(NCCC(C)(C)O)nc12 [Compound 35] | > 1000 | > 1000 | < 100 | B (B indicates 50 < [fold] ≤ 500) | B (B indicates 50 < [fold] ≤ 500) | B (B indicates 50 < [fold] ≤ 500) | < 1000 | > 1000 | < 1000 | < 1000
CC(C)=CC(=O)Nc1ccc2c(-c3ccccc3CNc3nc(N4CCC(N)CC4)nc4c(C(C)C)cnn34)nccc2c1 [Compound 40] | > 1000 | > 1000 | < 100 | A (A indicates [fold] > 500) | A (A indicates [fold] > 500) | B (B indicates 50 < [fold] ≤ 500) | < 1000 | > 1000 | < 1000 | < 1000
